In patent publication US20230192686A1, “1H-PYRROLO[2,3-B]PYRIDINES AND PREPARATION AND USES THEREOF” (BioSplice Therapeutics, Inc., priority 2021, published 2023) one finds EC50 data, which are given here for 29 molecules.

The target of this assay is recombinant DYRK1A kinase (Homo sapiens, UniProt Q13627). Kind of assay: DYRK1A kinase assay (Ser/Thr 18 peptide Z-lyte FRET). It is filed as biochemical. The note with it: DYRK1A kinase activity; 15 μM ATP, 4 μM Ser/Thr peptide 18, one hour at room temperature. The procedure: Representative compounds were screened using the assay procedure for DYRK1A kinase activity as described below.
Each compound was dissolved in DMSO as a 10 mM stock and used to prepare compound source plates. Serial dilution (1:3, 11-point dose-response curves from 10 μM to 0.00016 μM) and compound transfer was performed using the ECHO 550 (Labcyte, Sunnyvale, Calif.) into 1536-well black-walled round bottom plates (Corning).
The DYRK1A kinase assay was run using the Ser/Thr 18 peptide Z-lyte assay kit according to manufacturer's instructions (Life Technologies—a Division of Thermo-Fisher). This is a non-radioactive assay using fluorescence resonance energy transfer (FRET) between coumarin and fluorescein to detect kinase activity which is represented as a ratio of coumarin emission/fluorescein emission.
Briefly, recombinant DYRK1A kinase, ATP and Ser/Thr peptide 18 were prepared in 1× Kinase buffer to final concentrations of 0.25 μg/mL, 15 μM, and 4 μM respectively. The mixture was allowed to incubate with the representative compounds for one hour at room temperature. All reactions were performed in duplicate. Unphosphorylated (“0% Control”) and phosphorylated (“100% control”) forms of Ser/Thr 18 served as control reactions. Additionally, an 11-point dose-response curve of Staurosporine (1 uM top) was run to serve as a positive compound control.
After incubation, Development Reagent A was diluted in Development Buffer then added to the reaction and allowed to further incubate for one hour at room temperature. The plate was read at Ex 400 Em 455 to detect the coumarin signal and Ex 400 Em 520 to measure the signal (EnVision Multilabel Plate Reader, PerkinElmer).
The Emission ratio (Em) was calculated as a ratio of the coumarin (C) emission signal (at 445 nm)/Fluorescein (F) emission signal (at 520 nm). The percent phosphorylation was then calculated using the following formula: [1−((Em ratio×F100%)−C100%)/((C0%−C100%)+(Em ratio×(F100%−F0%)))]. Dose-response curves were generated, and inhibitory concentration (IC50) values were calculated using non-linear regression curve fit in the Dotmatics' Studies Software (Bishops Stortford, UK).

Usually EC50 stands for the concentration needed to bring the measured effect to its halfway point. In the case of `COc1ccnc2[nH]cc(-c3ccn4ncc(C(=O)NC5CCN(C)CC5)c4c3)c12` [Compound 128, 5-(4-Methoxy-1H-pyrrolo[2,3-b]pyridin-3-yl)-N-(1-methylpiperidin-4-yl)pyrazolo[1,5-a]pyridine-3-carboxamide], the EC50 amounted to 1 nM.

On to `CN1CCN(c2cc(-c3cnc4[nH]cc(-c5ccc6c(c5)C5(CCCCC5)NC6=O)c4c3)ccn2)CC1` [Compound 1398, 6′-(5-(2-(4-Methylpiperazin-1-yl)pyridin-4-yl)-1H-pyrrolo[2,3-b]pyridin-3-yl)spiro[cyclohexane-1,1′-isoindolin]-3′-one], for which the EC50 is 4 nM. `CN1CCC(C(=O)Nc2cnc3[nH]cc(-c4ccc5ncccc5c4)c3c2)CC1` [Compound 648, 1-Methyl-N-(3-(quinolin-6-yl)-1H-pyrrolo[2,3-b]pyridin-5-yl) piperidine-4-carboxamide]: the 50% effective concentration (EC50) worked out at 2 nM. With `O=C(NCC(F)F)c1cnn2ccc(-c3c[nH]c4nc(C5CCC5)ccc34)cc12` [Compound 1554, 5-(6-Cyclobutyl-1H-pyrrolo[2,3-b]pyridin-3-yl)-N-(2,2-difluoroethyl) pyrazolo[1,5-a]pyridine-3-carboxamide], the 50% effective concentration (EC50) was found to be 8 nM. For `CN1CCn2ncc(-c3cnc4[nH]cc(-c5ccn6ncc(C(=O)Nc7cccnc7)c6c5)c4c3)c2C1` [Compound 1137, 5-(5-(5-Methyl-4,5,6,7-tetrahydropyrazolo[1,5-a]pyrazin-3-yl)-1H-pyrrolo[2,3-b]pyridin-3-yl)-N-(pyridin-3-yl)pyrazolo[1,5-a]pyridine-3-carboxamide], the EC50 was 4 nM. With `CN1CCN(c2cc(-c3cnc4[nH]cc(-c5ccc6nccn6c5)c4c3)ccn2)CC1` [Compound 1372, 6-(5-(2-(4-Methylpiperazin-1-yl)pyridin-4-yl)-1H-pyrrolo[2,3-b]pyridin-3-yl)imidazo[1,2-a]pyridine], the EC50 turned out to be 1 nM. Under `Cc1nc2ccc(-c3c[nH]c4ncccc34)nc2n1C(C)C` [Compound 27, 3-Isopropyl-2-methyl-5-(1H-pyrrolo[2,3-b]pyridin-3-yl)-3H-imidazo [4,5-b]pyridine] stands 2 nM; under `CN(CC(F)F)C(=O)c1cnc2ccc(-c3c[nH]c4nc(C5CC5)ccc34)cn12` [Compound 2056, 6-(6-cyclopropyl-1H-pyrrolo[2,3-b]pyridin-3-yl)-N-(2,2-difluoroethyl)-N-methylimidazo[1,2-a]pyridine-3-carboxamide], 5 nM; under `O=C(Nc1cccnc1)c1cnn2ccc(-c3c[nH]c4ncccc34)cc12` [Compound 52, N-(Pyridin-3-yl)-5-(1H-pyrrolo[2,3-b]pyridin-3-yl)pyrazolo[1,5-a]pyridine-3-carboxamide], 2 nM. Regarding `CN1CCN(C(=O)c2cnn3ccc(-c4c[nH]c5ncccc45)cc23)CC1` [Compound 55, (5-(1H-Pyrrolo[2,3-b]pyridin-3-yl)pyrazolo[1,5-a]pyridin-3-yl)(4-methylpiperazin-1-yl)methanone], the EC50 amounted to 4 nM. Consider `CN1CCN(c2ccc(CNc3ccnc4[nH]cc(-c5ccc6ncccc6c5)c34)cn2)CC1` [Compound 2051, N-((6-(4-Methylpiperazin-1-yl)pyridin-3-yl)methyl)-3-(quinolin-6-yl)-1H-pyrrolo[2,3-b]pyridin-4-amine], for which the EC50 worked out at 37 nM. In the case of `CN1C2CCC1CN(C(=O)c1cnc3[nH]cc(-c4ccn5nccc5c4)c3c1)C2` [Compound 2049, (8-Methyl-3,8-diazabicyclo[3.2.1]octan-3-yl)(3-(pyrazolo[1,5-a]pyridin-5-yl)-1H-pyrrolo[2,3-b]pyridin-5-yl)methanone] it was 45 nM; in that of `CN1CC2CN(C(=O)c3cnn4ccc(-c5c[nH]c6ncccc56)cc34)CC2C1` (centres unmarked) [Compound 64, (5-(1H-Pyrrolo[2,3-b]pyridin-3-yl)pyrazolo[1,5-a]pyridin-3-yl)(5-methylhexahydropyrrolo[3,4-c]pyrrol-2(1H)-yl)methanone], 6 nM. With `Cc1nc2c(F)cc(-c3c[nH]c4ncc(-c5cccnc5)cc34)cc2n1C1CCN(C)CC1` [Compound 1166, 4-Fluoro-2-methyl-1-(1-methylpiperidin-4-yl)-6-(5-(pyridin-3-yl)-1H-pyrrolo[2,3-b]pyridin-3-yl)-1H-benzo[d]imidazole], the concentration giving a half-maximal response (EC50) is 3 nM.

Regarding `O=C(N[C@@H]1CCNC[C@H]1F)c1cnn2ccc(-c3c[nH]c4ncccc34)cc12` [Compound 43, N-((3R,4R)-3-Fluoropiperidin-4-yl)-5-(1H-pyrrolo[2,3-b]pyridin-3-yl) pyrazolo[1,5-a]pyridine-3-carboxamide], the EC50 stood at 1 nM. Turning to `Cc1nc2c(F)cc(-c3c[nH]c4ncccc34)cc2n1C1CCNCC1` [Compound 23, 4-Fluoro-2-methyl-1-(piperidin-4-yl)-6-(1H-pyrrolo[2,3-b]pyridin-3-yl)-1H-benzo[d]imidazole], the EC50 stood at 2 nM. For `Cc1nc2c(F)cc(-c3c[nH]c4ncc(-c5ccc(N6CCN(C)CC6)nc5)cc34)cc2n1C(C)C` [Compound 1333, 4-Fluoro-1-isopropyl-2-methyl-6-(5-(6-(4-methylpiperazin-1-yl)pyridin-3-yl)-1H-pyrrolo[2,3-b]pyridin-3-yl)-1H-benzo[d]imidazole], the EC50 was 1 nM. Take `O=C1NC2(CCCCC2)c2cc(-c3c[nH]c4ncccc34)ccc21` [Compound 78, 6′-(1H-Pyrrolo[2,3-b]pyridin-3-yl)spiro[cyclohexane-1,1′-isoindolin]-3′-one]: the EC50 amounted to 6 nM. On to `CN1CCN(c2ncnc3ccc(-c4c[nH]c5ncc(-c6cccnc6)cc45)cc23)CC1` [Compound 1198, 4-(4-Methylpiperazin-1-yl)-6-(5-(pyridin-3-yl)-1H-pyrrolo[2,3-b]pyridin-3-yl)quinazoline], for which the EC50 was 3 nM. For `COc1ncnc2ccc(-c3c[nH]c4ncc(-c5cccnc5)cc34)cc12` [Compound 1197, 4-Methoxy-6-(5-(pyridin-3-yl)-1H-pyrrolo[2,3-b]pyridin-3-yl) quinazoline], the EC50 came to 3 nM. As for `COc1ccc(-c2c[nH]c3ncccc23)nn1` [Compound 69, 3-(6-Methoxypyridazin-3-yl)-1H-pyrrolo[2,3-b]pyridine], the EC50 was found to be 73 nM. Under `c1cnc2[nH]cc(-c3ccc4ncnc(N5CCNC6(CC6)C5)c4c3)c2c1` [Compound 96, 6-(1H-Pyrrolo[2,3-b]pyridin-3-yl)-4-(4,7-diazaspiro[2.5]octan-7-yl) quinazoline] stands 1 nM; under `Cc1nc2c(F)cc(-c3c[nH]c4ncc(-c5cc(F)c(F)c(N6CCNCC6)c5)cc34)cc2n1C(C)C` [Compound 997, 6-(5-(3,4-Difluoro-5-(piperazin-1-yl)phenyl)-1H-pyrrolo[2,3-b]pyridin-3-yl)-4-fluoro-1-isopropyl-2-methyl-1H-benzo[d]imidazole], 6 nM; under `Cc1ccnc(C)c1-c1cnc2[nH]cc(-c3cc(F)c4nc(C)n(C(C)C)c4c3)c2c1` [Compound 1291, 6-(5-(2,4-Dimethylpyridin-3-yl)-1H-pyrrolo[2,3-b]pyridin-3-yl)-4-fluoro-1-isopropyl-2-methyl-1H-benzo[d]imidazole], 7 nM. Regarding `CN1CCN(Cc2cnc3[nH]cc(-c4ccc5c(c4)C(C)(C)CNC5=O)c3c2)CC1` [Compound 435, 4,4-dimethyl-6-(5-((4-methylpiperazin-1-yl)methyl)-1H-pyrrolo[2,3-b]pyridin-3-yl)-3,4-dihydroisoquinolin-1(2H)-one], the EC50 came out at 96 nM.

`Cc1nc2cnc(-c3c[nH]c4nc(C5CCC5)ccc34)cc2n1C(C)C` [Compound 1546, 6-(6-Cyclobutyl-1H-pyrrolo[2,3-b]pyridin-3-yl)-1-isopropyl-2-methyl-1H-imidazo[4,5-c]pyridine]: the EC50 turned out to be 2050 nM.

As for `O=C(c1cnn2ccc(-c3c[nH]c4ncccc34)cc12)N1CCCCC1` [Compound 53, (5-(1H-Pyrrolo[2,3-b]pyridin-3-yl)pyrazolo[1,5-a]pyridin-3-yl) (piperidin-1-yl)methanone], the EC50 was 7 nM.

As for `Cc1cn2c(n1)CN(C(=O)c1cnc3[nH]cc(-c4cc(F)c5nc(C)n(C(C)C)c5c4)c3c1)CC2` [Compound 577, (3-(4-Fluoro-1-isopropyl-2-methyl-1H-benzo[d]imidazol-6-yl)-1H-pyrrolo[2,3-b]pyridin-5-yl)(2-methyl-5,6-dihydroimidazo[1,2-a]pyrazin-7(8H)-yl)methanone], the EC50 was 3 nM. In the case of `Cc1nc2c(F)cc(-c3c[nH]c4ncc(-c5cnn6c5CN(C)CC6)cc34)cc2n1C(C)C` [Compound 1123, 3-(3-(4-Fluoro-1-isopropyl-2-methyl-1H-benzo[d]imidazol-6-yl)-1H-pyrrolo[2,3-b]pyridin-5-yl)-5-methyl-4,5,6,7-tetrahydropyrazolo[1,5-a]pyrazine], the EC50 stood at 4 nM.
